Measurements published in patent US12264349B2, “Method for producing monoterpenoid compounds” (John Innes Centre, priority 2018, dated 2025).
Like-named read-outs stand apart in the source and are kept apart here.

Experiments:
NEPS1-WT = biological target: T1, NEPS1-WT (Nepeta racemosa, UniProt A0A3Q8GL18); experiment: NEPS1 dehydrogenase activity kinetics, spectrophotometric at 340 nm; assay type: biochemical, Nepeta mussinii; settings: for Kcat or V (velocity V, single substrate concentration): substrate 1000 μM
T1 construct: made in house; host or cells: E. coli SoluBL21
T1 sequence (A0A3Q8GL18 1-271): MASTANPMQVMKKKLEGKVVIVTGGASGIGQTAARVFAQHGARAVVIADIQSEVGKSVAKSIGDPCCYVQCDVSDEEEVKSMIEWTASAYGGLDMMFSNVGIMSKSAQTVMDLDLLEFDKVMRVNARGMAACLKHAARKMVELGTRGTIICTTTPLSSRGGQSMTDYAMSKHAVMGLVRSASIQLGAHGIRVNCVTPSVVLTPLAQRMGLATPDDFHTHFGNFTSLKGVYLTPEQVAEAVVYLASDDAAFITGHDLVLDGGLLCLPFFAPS
Experimental: (§1) Kinetics and dehydrogenase activity measurements were conducted spectrophotometrically on a PerkinElmer Lambda 35 instrument at a wavelength of 340 nm and in cuvettes with 1 cm path length. The reactions were conducted at 25° C. and with 50 mM HEPES pH 8.0, […].
(§2) Reactions were initiated by addition of the enzyme, and absorbance values were recorded at a rate of 1 Hz. Enzyme concentration was varied from 0.025-0.25 μM to maintain a linear rate. The R software environment was used to fit linear initial rates over the first 20 s of the enzyme reaction. For Michaelis-Menten experiments, at least 8 data points were obtained for each substrate combination. The Michaelis-Menten equation was fitted to the data points in R by the nls function to obtain values for the kinetic parameters. Kinetic parameters are reported as a best fit estimate±SE. For activity measurements with NADP^+ and NADH, single substrate concentrations were employed. Velocity values (in italics) are provided as a mean of triplicate measurements±standard deviation from the mean.

NEPS1-T154G = biological target: T2, NEPS1-T154G (Nepeta racemosa, UniProt A0A3Q8GL18, T154G); assay type: biochemical, Nepeta mussinii
T2 construct: This gene-length amplicon was gel-purified and then cloned into the pOPINF vector; made in house; host or cells: E. coli SoluBL21
Experimental: as §1, §2

[1] = Nepetalactol stability in buffer (GC-MS); assay type: physicochemical; settings: 30° C.
Experimental: Cis-trans-nepetalactol (4a, FIG. 10A) and cis-cis-nepetalactol (4b, FIG. 10B) stability in 10 mM and 0.5 M MOPS pH 7.5. 4a appears to be stable in both these conditions. 4b appears mostly stable in 10 mM MOPS pH 7.5, but is not stable in high buffer concentrations (0.5 M MOPS pH 7.5) and degrades to form iridodials 5. Chromatograms are all GC-MS TICs, RT=retention time (min), incubation was 16 h, 30° C.
End-point assays with purified enzymes were conducted at a total volume of 100 μL. Reactions using either 8-oxogeranial 2 or 8-oxocitronellal 6 as a substrate contained 1% v/v MeCN. In experiments examining the effect of buffer concentrations, enzymes were diluted with water. Trace residual concentrations of sample buffer in the enzyme sample were too low to effect product profiles. All reactions were conducted at 30° C. Reactions containing 8-oxogeranial 2 as a substrate were incubated for 3 h, whilst reactions with 8-oxocitronellal 6 were incubated for 16 h, unless noted. At reaction termination, a camphor standard (10 μL, stock 1 mM in MeCN) and EtOAc (100 μL) were added. The reactions were vortexed, centrifuged (10,000×g, 10 min) and the organic layer was used in GC-MS analysis. The concentrations of components in reactions varied extensively and so for each reaction the Figure or Figure legend describe the exact conditions employed.
Samples were injected in split mode (2 μL, split ratio 5:1) at an inlet temperature of 220° C. on a Hewlett Packard 6890 GC-MS equipped with a 5973 mass selective detector (MSD), and an Agilent 7683B series injector and autosampler. Separation was performed on a Zebron ZB5-HT-INFERNO column (5% phenyl methyl siloxane; length: 35 m; diameter: 250 μm) with guard column. Helium was used as mobile phase at a constant flow rate of 1.2 mL/min and average velocity 37 cm/s. After 5 min at 80° C., the column temperature was increased to 110° C. at a rate of 2.5 K/min, then to 280° C. at 120 K/min, and kept at 280° C. for another 4 min. A solvent delay of 5 min was allowed before collecting MS spectra at a fragmentation energy of 70 eV. An internal standard of (+)-camphor was used for retention time calibration. Chemically characterised standards were used to identify compounds by retention time and electron impact spectra.

[2] = co-substrate NAD+ 1 mM, 25° C., 50 mM HEPES pH 8.0
[3] = co-substrate NAD+ 1 mM, substrate 50-750 μM
[4] = co-substrate 4a 0.1 mM, substrate 1-250 μM
[5] = co-substrate 4a 0.5 mM, substrate 7.8-1000 μM

With CC1=COC(=O)[C@H]2[C@@H]1CC[C@@H]2C (relative stereo) [1a, cis-trans-nepetalactone] the “Kcat or V (velocity V, single substrate concentration)” value (NEPS1-WT; co-substrate NADH 0.1 mM) was “no reaction”.
In the case of CC1=COC(O)[C@H]2[C@@H]1CC[C@@H]2C (relative stereo) [4a, cis-trans-nepetalactol], the “Kcat or V (kcat, substrate concentration varied)” value (NEPS1-WT; [2]) is reported as 0.148 ± 0.002 s⁻¹, the Km (NEPS1-WT; [2]) is reported as 1.6 ± 0.1 µM and the “increase in Km caused by the T154G substitution” value (NEPS1-T154G; NEPS1-T154G versus NEPS1-WT) is reported as 150 fold. The “Kcat or V (kcat, substrate concentration varied)” value (NEPS1-T154G; [3]) was 0.0804 ± 0.005 s⁻¹, the Km (NEPS1-T154G; [3]) was 251 ± 37 µM and the stability in buffer ([1]; 10 mM MOPS pH 7.5, 16 h) was “stable”. For the same molecule, the stability in buffer ([1]; 0.5 M MOPS pH 7.5, 16 h) was “stable”.
For CC1=COC(O)[C@H]2[C@@H](C)CC[C@@H]12 (relative stereo) [4b, cis-cis-nepetalactol], the “Kcat or V (kcat, substrate concentration varied)” value (NEPS1-WT; [2]) was 0.32 ± 0.01 s⁻¹, the Km (NEPS1-WT; [2]) was 4.9 ± 0.8 µM and the stability in buffer ([1]; 10 mM MOPS pH 7.5, 16 h) was “mostly stable”. For the same molecule, the stability in buffer ([1]; 0.5 M MOPS pH 7.5, 16 h) was “not stable”.
In the case of NC(=O)c1ccc[n+]([C@@H]2O[C@H](COP(=O)([O-])OP(=O)(O)OC[C@H]3O[C@@H](n4cnc5c(N)ncnc54)[C@H](O)[C@@H]3O)[C@@H](O)[C@H]2O)c1 [NAD+, oxidized nicotinamide adenine dinucleotide, reference compound], the “Kcat or V (kcat, substrate concentration varied)” value (NEPS1-WT; [4]) is reported as 0.173 ± 0.003 s⁻¹, the Km (NEPS1-WT; [4]) is reported as 3.5 ± 0.3 µM and the “Kcat or V (kcat, substrate concentration varied)” value (NEPS1-T154G; [5]) is reported as 0.0599 ± 0.002 s⁻¹. For the same molecule, the Km (NEPS1-T154G; [5]) was 26 ± 4 µM.
For NC(=O)c1ccc[n+]([C@@H]2O[C@H](COP(=O)([O-])OP(=O)(O)OC[C@H]3O[C@@H](n4cnc5c(N)ncnc54)[C@H](OP(=O)(O)O)[C@@H]3O)[C@@H](O)[C@H]2O)c1 [NADP+, reference compound], the “Kcat or V (velocity V, single substrate concentration)” value (NEPS1-WT; co-substrate 4a 0.1 mM) was 0.020 ± 0.005 s⁻¹.
